Data published in patent US10660890B2, “Treatment of polycystic diseases with an HDAC6 inhibitor” (NATIONAL INSTITUTES OF HEALTH (NIH), U.S. DEPT. OF HEALTH …, priority 2013, dated 2020).

Experiments:
[1] = tested on: normal (NRC) cholangiocytes; assay: Proliferation assay, normal rat cholangiocytes (NRC); assay type: cell-based; details: 2, 4, and 8 μmol/L (FIG. 4A)
Description: (§1) For in vitro experiments, cholangiocytes were isolated from control rats, PCK rats (an animal model for ARPKD; Vroman B, LaRusso N F: Development and characterization of polarized primary cultures of rat intrahepatic bile duct epithelial cells, Lab Invest 1996, 74:303-313), healthy human beings and ADPKD patients (Masyuk et al. Biliary exosomes influence cholangiocyte regulatory mechanisms and proliferation through interaction with primary cilia, Am J Physiol Gastrointest Liver Physiol (2010) 299:G990-999; O'Hara et al. Cholangiocyte N-Ras protein mediates lipopolysaccharide-induced interleukin 6 secretion and proliferation, J Biol Chem (2011) 286:30352-30360; Banales et al. Up-regulation of microRNA 506 leads to decreased Cl(−)/HCO(3) (−) anion exchanger 2 expression in biliary epithelium of patients with primary biliary cirrhosis, Hepatology (2012) 56(2):687-97).
Cholangiocytes were cultured in Collagen-I-coated flasks (BD Biocoat). […]
Control and PCK rat cholangiocytes were cultured on Collagen-I-coated flasks (BD Biocoat) using NRC Media, detached with 0.25% Trypsin-EDTA (GIBCO), transferred to Collagen-I-coated 96-well plates (10 000 cells/well) and incubated at 37° C., 5% CO2, 100% humidity. […] Cell proliferation was assessed with the CellTiter 96 AQueous One Solution (MTS; Promega) and/or counting cells using the Cellometer Auto T4 Cell Counter (Nexcelom Bioscience).

PCK rat = PCK rat model of polycystic liver disease, cystic area and fibrosis; assay type: in vivo
Description: Bar=2500 μm. FIG. 4C, quantification analysis of cystic area expressed as percentage of total parenchyma area. *p<0.05.
The PCK rat model was used because the genetic mutation in this animal is orthologous to that found in human ARPKD. These animals express many of the characteristics of human […] (Lager D J, et al., Kidney Internat 59: 126-136, 2001; Harris, Curr Opin Nephrol Hypertens 11:309-314, 2002). The animals carrying this mutation present with both kidney and liver fibrocystic disease and these animals live long enough to facilitate long-term treatment protocols (Gattone V. H., et al., Nat Med (2003) 9: 1323-1326; Tones V. E., et al., Nat Med (2004) 10:363-364; Masyuk T. V., et al., Gastroenterology (2007) 132:1104-1116, 2007. Female animals show more severe liver disease than male animals.
The efficacy of the Compound A-1 was then tested in a PCK rat, an animal model of polycystic liver disease.

PCK rat cholangiocytes = assay: Proliferation assay, PCK rat cholangiocytes (MTS / cell counting); assay type: cell-based; details: for reduction of proliferation of PCK cholangiocytes: day 3, MTS
Description: For in vitro experiments, cholangiocytes were isolated from control rats, PCK rats (an animal model for […], LaRusso N F: Development and characterization of polarized primary cultures of rat intrahepatic bile duct epithelial cells, Lab Invest 1996, 74:303-313), healthy human beings and ADPKD patients (Masyuk et al. Biliary exosomes influence cholangiocyte regulatory mechanisms and proliferation through interaction with primary cilia, Am J Physiol Gastrointest Liver Physiol (2010) 299:G990-999; O'Hara et al. Cholangiocyte N-Ras protein mediates lipopolysaccharide-induced interleukin 6 secretion and proliferation, J Biol Chem (2011) 286:30352-30360; Banales et al. Up-regulation of microRNA 506 leads to decreased Cl(-)/HCO(3) (-) anion exchanger 2 expression in biliary epithelium of patients with primary biliary cirrhosis, Hepatology (2012) 56(2):687-97). Cholangiocytes were cultured in Collagen-I-coated flasks (BD Biocoat). All cell lines were incubated in NRC Media at 37° C., 5% CO2, 100% humidity. NRC Media contains Dulbecco's modified Eagle medium/F12 with the following additions: 0.01 mL/mL Minimum Essential Media (MEM) nonessential amino acids, 0.01 mL/mL lipid concentrate, 0.01 mL/mL MEM vitamin solution, 2 mmol/L L-glutamine, 0.05 mg/mL soybean trypsin inhibitor, 0.01 mL/mL insulin/transferring/selenium-S, 5% fetal bovine serum, […] bovine pituitary extract, 25 ng/mL epidermal growth factor, 393 ng/mL dexamethasone, […] 3,3-,5-triiodo-L-thyronine, 4.11 µg/mL forskolin, and 1% penicillin-streptomycin. […] The drug vehicle, DMSO, was suspended in NRC Media as a control. Cell proliferation was assessed with the CellTiter 96 AQueous One Solution (MTS; Promega) and/or counting cells using the Cellometer Auto T4 Cell Counter (Nexcelom Bioscience).

β-catenin [2] = assay: Immunofluorescence of β-catenin in PCK cholangiocytes; assay type: cell-based, rat; details: nucleus and cytoplasm (FIG. 6B)
Male PKC-1 rats = assay: Kidney cyst volume in male PCK-1 rats, oral gavage 12 weeks; assay type: in vivo, rat; details: oral gavage once daily for 12 weeks; histological analysis
Protocol: Male PKC-1 rats (4 weeks old, n=12) were treated by oral gavage once daily with the indicated dose of compounds for 12 weeks. The animals were sacrificed and kidneys were removed and fixed in formalin. The volume of cysts in the kidneys was measured by histological analysis (see FIG. 7). As a comparison, 6 rats were sacrificed at 4 weeks to measure the starting volume of renal cysts (control).

c-myc = assay: Western blot, c-myc in PCK cholangiocytes; assay type: cell-based, rat; details: 2 μM Tubacin
Protocol: (§2) PCK cholangiocytes were treated with 20 μM Tubastatin A or 2 μM Tubacin, lysed and used for Western blotting. […] Actin was used as a loading control. FIG. 3B depicts representative images of Western blots (n=3) showing HDAC6 inhibitors increase the amount of phospho- and acetyl-β-catenin compared to untreated cells using total-β-catenin as loading control. […] (*p<0.05).
(§3) Protein isolated from cultured control rat and PCK rat cholangiocytes were analyzed. Cells were scrapped, resuspended in Phosphate Buffered Saline (PBS) with Protease Inhibitors, Sodium Orthovanadate and Phenylmethanesulfonylfluoride (PMSF), sonicated and equal amounts of sample protein were diluted in Laemmli Sample Buffer (Biorad) and mercaptoethanol. After SDS polyacrylamide gel electrophoresis, SDS-PAGE, proteins were transferred to nitrocellulose membranes, blocked, and then incubated with the following primary antibodies: HDAC6 (Santa Cruz Biotechnology, D-11, 1:500), acetylated-α-tubulin (Sigma Aldrich, 1:2000), β-catenin (Cell Signaling Technology, (D10A8) XP® Rabbit mAb; 1:1000), Phospho-β-Catenin (Ser33/37/Thr41) (Cell Signaling Technology, 1:1000), acetyl-β-catenin (Cell Signaling Technology, 1:1000), c-myc (Santa Cruz Biotechnology, 1:500), cyclin D1 (Santa Cruz Biotechnology, 1:500), and actin (Sigma Aldrich, 1:5000). […]

acetylated α-tubulin = assay: Western blot, acetylated α-tubulin in PCK cholangiocytes; assay type: cell-based, rat
Protocol: as §2
Protein isolated from cultured control rat and PCK rat cholangiocytes were analyzed. Cells were scrapped, resuspended in Phosphate Buffered Saline (PBS) with Protease Inhibitors, Sodium Orthovanadate and Phenylmethanesulfonylfluoride (PMSF), sonicated and equal amounts of sample protein were diluted in Laemmli Sample Buffer (Biorad) and mercaptoethanol. […]
(§4) For a better understanding of the mechanisms that are responsible for the inhibition of PCK cholangiocyte proliferation and cyst growth in 3D culture, cultured PCK cholangiocytes were treated with tubastatin-A and tubacin and the amount of acetylated α-tubulin and β-catenin was determined by Western blotting.

[3] = tested on: biliary cysts freshly isolated from PCK rats; assay: 3D-culture cyst growth in collagen matrix; assay type: cell-based, rat; details: after four days
Protocol: Freshly isolated bile ducts from PCK rats were embedded in a rat-tail type I Collagen matrix (BD Biosciences) and grown in the presence or absence of 10 μmol/L Tubastatin A and 2 μmol/L Tubacin. Images of the growing cysts were taken every day over a period of 5 days and cyst size was measured with the software “Image J” (National Institute of Health). The circumferential areas for each cystic structure was compared to day 0 to calculate percentages of growth as previously described (see Muff et al. Development and characterization of a cholangiocyte cell line from the PCK rat, an animal model of Autosomal Recessive Polycystic Kidney Disease, Lab Invest 2006, 86:940-950; Masyuk et al. Octreotide inhibits hepatic cystogenesis in a rodent model of polycystic liver disease by reducing cholangiocyte adenosine 3′,5′-cyclic monophosphate, Gastroenterology (2007) 132:1104-1116 27; Lee et al. MicroRNA15a modulates expression of the cell-cycle regulator Cdc25A and affects hepatic cystogenesis in a rat model of polycystic kidney disease, J. Clin. Invest. (2008) 118:3714-3724 28. Gradilone et al. Activation of Trpv4 reduces the hyperproliferative phenotype of cystic cholangiocytes from an animal model of ARPKD, Gastroenterology (2010) 139:304-314 e302).

β-catenin [4] = assay: Western blot, β-catenin (total, phospho-, acetyl-) in PCK cholangiocytes; assay type: cell-based, rat
Protocol: as §2
Protein isolated from cultured control rat and PCK rat cholangiocytes were analyzed. Cells were scrapped, resuspended in Phosphate Buffered Saline (PBS) with Protease Inhibitors, Sodium Orthovanadate and Phenylmethanesulfonylfluoride (PMSF), sonicated and equal amounts of sample protein were diluted in Laemmli Sample Buffer (Biorad) and mercaptoethanol. After SDS polyacrylamide gel electrophoresis, SDS-PAGE, proteins were transferred to nitrocellulose membranes, blocked, and then incubated with the following primary antibodies: HDAC6 (Santa Cruz Biotechnology, D-11, 1:500), acetylated-α-tubulin (Sigma Aldrich, 1:2000), β-catenin (Cell Signaling Technology, (D10A8) XP® Rabbit mAb; 1:1000), Phospho-β-Catenin (Ser33/37/Thr41) (Cell Signaling Technology, 1:1000), acetyl-β-catenin (Cell Signaling Technology, 1:1000), c-myc (Santa Cruz Biotechnology, 1:500), cyclin D1 (Santa Cruz Biotechnology, 1:500), and actin (Sigma Aldrich, 1:5000). The membranes were incubated overnight at 4° C., washed and incubated for 1 hour at room temperature with horseradish perodixase-conjugated (1:5000, Invitrogen) or IRdye 680 or 800 (1:15000, Odyssey) corresponding secondary antibody. The ECL system or Odyssey Licor Scanner was used for protein detection and the Gel-Pro Analyzer 6.0 software was used for densitometry analysis.
as §4

[5] = tested on: human ADPKD cholangiocytes; assay: 3-day proliferation assay, human ADPKD cholangiocytes; assay type: cell-based; details: 3-day proliferation assay (FIG. 5A)
Description: FIG. 5A depicts a human ADPKD 3-day proliferation assay showing decreased proliferation induced by both HDAC6 specific inhibitors, tubastatin-A and tubacin.
as §1
Cholangiocytes were cultured in Collagen-I-coated flasks (BD Biocoat). All cell lines were incubated in NRC Media at 37° C., 5% CO2, 100% humidity. […]

cyclin D1 = assay: Western blot, cyclin D1 in PCK cholangiocytes; assay type: cell-based, rat; details: 2 μM Tubacin
Protocol: as §2, §3

histone-3 = assay: Western blot, histone-3 acetylation in PCK cholangiocytes; assay type: cell-based, rat; details: 2 μM Tubacin
Protocol: as §2, §3

β-catenin mRNA = assay: RT-PCR, β-catenin mRNA in PCK cholangiocytes; assay type: cell-based, rat; details: 2 uM tubacin; over time
Protocol: as §2
RNA was isolated from control and PCK rat cholangiocytes with TRIZOL reagent (Invitrogen). cDNA was obtained using First Srand cDNA Synthesis (Invitrogen) reagents and HDAC6 primers (forward primer: 5′-TCAGCGCAGTCTTATGGATG-3′ (SEQ ID NO.: 1); reverse primer: 5′-GCGGTGGATGGAGAAATAGA-3′, SEQ ID NO.: 2) were purchased from Integrated DNA Technologies. β-catenin mRNA expression was analyzed using the TaqMan Gene Expression Assay (Assay ID Rn00584431_g1) following the manufacturer directions. The samples were normalized to 18S rRNA.

[6] = 2 μM Tubacin, total-β-catenin as loading control

O=C(CCCCCCNC(=O)c1cnc(N(c2ccccc2)c2ccccc2)nc1)NO [Compound A-1, 2-(diphenylamino)-N-(7-(hydroxyamino)-7-oxoheptyl)pyrimidine-5-carboxamide]
proliferation of normal cells [1]: no significant effect | reduction of liver fibrosis (PCK rat; p<0.001): 30.5% | reduction of kidney cyst area (PCK rat; vs vehicle): 39.0% | reduction of liver cyst area (PCK rat; vs vehicle): 28.4% | PCK cells proliferation (PCK rat cholangiocytes; 2, 4, and 8 μmol/L (FIG. 4A)): inhibited by the Compound A-1 in a dose dependent manner | β-catenin expression in PCK cells (fluorescence quantification) (β-catenin [2]): reduced β-catenin expression

O=C(CCCCCCNC(=O)c1cnc(N(c2ccccc2)c2ccccc2Cl)nc1)NO [Compound B-1, 2-((2-chlorophenyl)(phenyl)amino)-N-(7-(hydroxyamino)-7-oxoheptyl)pyrimidine-5-carboxamide]
cyst formation in vivo (volume of cysts in the kidneys) (Male PKC-1 rats): decrease cyst formation

O=C(NO)c1cnc(NC2(c3ccccc3)CCC(F)(F)CC2)nc1 [Compound C-2]
cyst formation in vivo (volume of cysts in the kidneys) (Male PKC-1 rats): decrease cyst formation

O=C(CCCCCCC(=O)Nc1ccc([C@H]2O[C@@H](CSc3nc(-c4ccccc4)c(-c4ccccc4)o3)C[C@@H](c3ccc(CO)cc3)O2)cc1)NO [tubacin]
c-myc level (c-myc): decreasing | increase of acetylated α-tubulin level compared to untreated cells (acetylated α-tubulin; 2 μM Tubacin): 2.3 fold | reduction of cyst growth compared to untreated cysts ([3]; 2 μM): 125% | decrease of β-catenin level (β-catenin [4]; 2 μM Tubacin): 5 fold | amount of acetyl-β-catenin compared to untreated cells (β-catenin [4]; [6]): increase | amount of phospho-β-catenin compared to untreated cells (β-catenin [4]; [6]): increase | β-catenin protein expression over time (β-catenin [4]; 2 uM tubacin): decrease in β-catenin protein expression over time | decrease of proliferation of cultured human ADPKD cholangiocytes [5]: 16% | reduction of PCK cholangiocyte proliferation (PCK rat cholangiocytes; tubacin, 3 day time period (FIG. 2B)): 2.94 folds | cyclin D1 level (cyclin D1): decreasing | acetylation levels of histone-3 (histone-3): remained unaffected | β-catenin mRNA (β-catenin mRNA): remained stable

CN1CCc2c(c3ccccc3n2Cc2ccc(C(=O)NO)cc2)C1 [tubastatin A]
increase of acetylated α-tubulin level compared to untreated cells (acetylated α-tubulin; 20 μM Tubastatin A): 13 fold | reduction of cyst growth compared to untreated cysts ([3]; 10 μM): 131% | decrease of β-catenin level (β-catenin [4]; 20 μM Tubastatin A): 2.2 fold | decrease of proliferation of cultured human ADPKD cholangiocytes [5]: 85% | reduction of proliferation of PCK cholangiocytes (PCK rat cholangiocytes; 5 μM): 2.5 folds | reduction of proliferation of PCK cholangiocytes (PCK rat cholangiocytes; 10 μM): 3.5 folds | reduction of proliferation of PCK cholangiocytes (PCK rat cholangiocytes; 20 μM): 4.15 folds
